Patent US7910612B2, “4-oxy-N-[1,3,4]-thiadiazol-2-yl-benzene sulfonamides, pharmaceutical compositions and methods for their therapeutic use” (Sanofi-Aventis, priority 2005, dated 2011)

target: T1, human PPARalpha (Homo sapiens, UniProt Q07869); assay: cellular PPARalpha assay (stably transfected HEK luciferase reporter cell line); type: cell-based
T1 construct: amino acids S167-Y468; expressed in transfected cells; host or cells: HEK (human embryo kidney) cells, stably transfected, pcDNA3 vector
T1 sequence (Q07869 167-468): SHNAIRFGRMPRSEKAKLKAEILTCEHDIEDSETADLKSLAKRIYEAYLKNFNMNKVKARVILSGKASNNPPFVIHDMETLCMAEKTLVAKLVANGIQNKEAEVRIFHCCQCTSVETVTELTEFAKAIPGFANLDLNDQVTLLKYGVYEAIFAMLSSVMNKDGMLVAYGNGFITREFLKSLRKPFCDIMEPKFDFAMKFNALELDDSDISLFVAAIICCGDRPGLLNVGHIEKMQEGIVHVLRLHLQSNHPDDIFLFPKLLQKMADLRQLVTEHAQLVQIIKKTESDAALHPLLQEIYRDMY
Procedure: The activity of the compounds was tested by a determination of EC50 values of PPAR agonists in the cellular PPARalpha assay. The potency of substances which bind to human PPARalpha and activate it in an agonistic manner is analyzed using a stably transfected HEK cell line (HEK=human embryo kidney) which is referred to here as PPARalpha reporter cell line. It contains two genetic elements, a luciferase reporter element (pdeltaM-GAL4-Luc-Zeo) and a PPARalpha fusion protein (GR-GAL4-humanPPARalpha-LBD) which mediates expression of the luciferase reporter element depending on a PPARalpha ligand. The stably and constitutively expressed fusion protein GR-GAL4-humanPPARalpha-LBD binds in the cell nucleus of the PPARalpha reporter cell line via the GAL4 protein portion to the GAL4 DNA binding motifs 5′-upstream of the luciferase reporter element which is stably integrated in the genome of the cell line. There is only weak expression of the luciferase reporter gene in the absence of a PPARalpha ligand if fatty acid-depleted fetal calf serum (cs-FCS) is used in the assay. PPARalpha ligands bind and activate the PPARalpha fusion protein and thereby stimulate the expression of the luciferase reporter gene. The luciferase which is formed can be detected by means of chemiluminescence via an appropriate substrate.
The PPARalpha reporter cell line was prepared in two stages. Firstly, the luciferase reporter element was constructed and stably transfected into HEK cells. For this purpose, five binding sites of the yeast transcription factor GAL4 (Accession # AF264724) were cloned in 5′-upstream of a 68 bp-long minimal MMTV promoter (Accession #V01175). The minimal MMTV promoter section contains a […] and a TATA element in order to enable efficient transcription by RNA polymerase II. The cloning and sequencing of the GAL4-MMTV construct took place in analogy to the description of Sambrook J. et. al. (Molecular cloning, Cold Spring Harbor Laboratory Press, 1989). Then the complete Photinus pyralis gene (Accession #M15077) was cloned in 3′-downstream of the GAL4-MMTV element. After sequencing, the luciferase reporter element consisting of five GAL4 binding sites, MMTV promoter and luciferase gene was recloned into a plasmid which confers zeocin resistance in order to obtain the plasmid pdeltaM-GAL4-Luc-Zeo. This vector was transfected into HEK cells in accordance with the statements in Ausubel, F. M. et al. (Current protocols in molecular biology, Vol. 1-3, John Wiley & Sons, Inc., 1995).
In a second step, the PPARalpha fusion protein (GR-GAL4-humanPPARalpha-LBD was introduced into the stable cell clone described. For this purpose, initially the cDNA coding for the N-terminal 76 amino acids of the glucocorticoid receptor (Accession #P04150) was linked to the cDNA section coding for amino acids 1-147 of the yeast transcription factor GAL4 (Accession #P04386). The cDNA of the ligand-binding domain of the human PPARalpha receptor (amino acids S167-Y468; Accession #S74349) was cloned in at the 3′-end of this GR-GAL4 construct. The fusion construct prepared in this way (GR-GAL4-humanPPARalpha-LBD) was recloned into the plasmid pcDNA3 (Invitrogen) in order to enable constitutive expression therein by the cytomegalovirus promoter. This plasmid was linearized with a restriction endonuclease and stably transfected into the previously described cell clone containing the luciferase reporter element. The finished PPARalpha reporter cell line which contains a luciferase reporter element and constitutively expresses the PPARalpha fusion protein (GR-GAL4-human PPARalpha-LBD) was isolated by selection with zeocin (0.5 mg/ml) and G418 (0.5 mg/ml).
Assay procedure.—The activity of PPARalpha agonists is determined in a 3-day assay which is described below: […]

Structure (SMILES)	EC50
Cc1nc(-c2ccc(C(F)(F)F)cc2)sc1COc1ccc(S(=O)(=O)Nc2nnc(C(C)C)s2)cc1 [Example 1, N-(5-Isopropyl-[1,3,4]thiadiazol-2-yl)-4-[4-methyl-2-(4-trifluoromethyl-phenyl)-thiazol-5-ylmethoxy]-benzenesulfonamide]	2900 nM
COc1ccc2c(COc3ccc(S(=O)(=O)Nc4nnc(C(C)C)s4)cc3)coc2c1 [Example 3, N-(5-Isopropyl-[1,3,4]thiadiazol-2-yl)-4-(6-methoxy-benzofuran-3-ylmethoxy)-benzenesulfonamide]	4570 nM
CC(C)c1nnc(NS(=O)(=O)c2ccc(OCc3ccc(Oc4ccc(C(F)(F)F)cc4)cc3)cc2)s1 [Example 4, N-(5-Isopropyl-[1,3,4]thiadiazol-2-yl)-4-[4-(4-trifluoromethyl-phenoxy)-benzyloxy]-benzenesulfonamide]	540 nM
COc1ccc(-c2nc(COc3ccc(S(=O)(=O)Nc4nnc(C(C)C)s4)cc3)no2)cc1 [Example 9, N-(5-Isopropyl-[1,3,4]thiadiazol-2-yl)-4-[5-(4-methoxy-phenyl)-[1,2,4]oxadiazol-3-ylmethoxy]-benzenesulfonamide]	1420 nM
COc1ccc(-c2nc(COc3ccc(S(=O)(=O)Nc4nnc(C(C)C)s4)cc3)co2)cc1 [Example 13, N-(5-Isopropyl-[1,3,4]thiadiazol-2-yl)-4-[2-(4-methoxy-phenyl)-oxazol-4-ylmethoxy]-benzenesulfonamide]	1200 nM
CCc1oc(-c2cccc(C(F)(F)F)c2)nc1COc1ccc(S(=O)(=O)Nc2nnc(C(C)C)s2)cc1 [Example 14, 4-[5-Ethyl-2-(3-trifluoromethyl-phenyl)-oxazol-4-ylmethoxy]-N-(5-isopropyl-[1,3,4]thiadiazol-2-yl)-benzenesulfonamide]	190 nM
